Measured values published in US20070027130A1, “Tricyclic 6-alkylidene-penem beta-lactamase inhibitors and beta-lactam antibiotic combination: a broad spectrum antibiotic” (priority 2005, published 2007).
In brackets after ≈: the same amount, converted by molar mass.

How the values were obtained:
Assay in all cases: MIC microbroth dilution
Type in all cases: cell-based
[1] = system: K. pn GC 6639 (SHV-13); conditions: Klebsiella pneumoniae, β-lactamase class A (ESBL), MHBII, 35° C. 18 hr, read-out: Minimal Inhibitory Concentration
Method in brief: (§1)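 In vitro activity was measured by NCCLS broth microdilution in MHBII. Incubation ran at 35 C for 18-22 hours under ambient air.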

[2] = system: E. coli GC 2847 (TEM-1); conditions: Escherichia coli, β-lactamase class A, MHBII, 35° C. 18 hr, read-out: Minimal Inhibitory Concentration
Method in brief: as §1

[3] = system: E. aerogenes 1697-MP GC 7845 AmpC; conditions: Klebsiella aerogenes; E. aerogenes GC 7845; β-lactamase class C; MHBII, 35° C. 18 hr; read-out: Minimal Inhibitory Concentration
Method in brief: as §1

[4] = system: P. aeruginosa GC 4161 Stably derepressed AmpC; conditions: Pseudomonas aeruginosa, 18 h, read-out: Minimal Inhibitory Concentration
Method in brief: as §1

[5] = system: M. morganii GC 1617 TEM-10 + inducible AmpC; conditions: Morganella morganii, β-lactamase class A (ESBL), C, MHBII, 35° C. 18 hr, read-out: Minimal Inhibitory Concentration
Method in brief: as §1

[6] = system: E. coli GC 1480 OXA-1; conditions: Escherichia coli, GC1480OXA1, β-lactamase class D, MHBII, 35° C. 18 hr, read-out: Minimal Inhibitory Concentration
Method in brief: as §1

[7] = system: E. coli GC 2804 (imp); conditions: Escherichia coli, 18 h, read-out: Minimal Inhibitory Concentration
Method in brief: as §1

[8] = system: E. coli ATCC 35218 TEM-1; conditions: Escherichia coli, ATCC35218, 18 h, read-out: Minimal Inhibitory Concentration
Method in brief: as §1

[9] = system: K. pneumoniae GC 7645 TEM-30 TEM-1 KPC-2 SHV-12; conditions: Klebsiella pneumoniae, 18 h, read-out: Minimal Inhibitory Concentration
Method in brief: as §1

[10] = system: E. cloacae GC 1477 (AmpC); conditions: Enterobacter cloacae, β-lactamase class C, MHBII, 35° C. 18 hr, read-out: Minimal Inhibitory Concentration
Method in brief: as §1

[11] = system: A. baumannii GC 7685 TEM-1; conditions: Acinetobacter baumannii, GC7685TEM1, 18 h, read-out: Minimal Inhibitory Concentration
Method in brief: as §1

[12] = system: K. pneumoniae GC 7822 Act 1; conditions: Klebsiella pneumoniae, GC7822ACT1, β-lactamase class C, MHBII, 35° C. 18 hr, read-out: Minimal Inhibitory Concentration
Method in brief: as §1

[13] = system: E. coli GC 5901 (TEM-1 and SHV-8); conditions: Escherichia coli, β-lactamase class A, A (ESBL), MHBII, 35° C. 18 hr, read-out: Minimal Inhibitory Concentration
Method in brief: as §1

[14] = system: K. pn GC 6494 (TEM-1 + SHV-5); conditions: Klebsiella pneumoniae, β-lactamase class A, A (ESBL), MHBII, 35° C. 18 hr, read-out: Minimal Inhibitory Concentration
Method in brief: as §1

[15] = system: E. coli GAR 5929 TEM, OXA, Act-1 , CTX (By PCR only); conditions: Escherichia coli, β-lactamase class A, C, D, MHBII, 35° C. 18 hr, read-out: Minimal Inhibitory Concentration
Method in brief: as §1

[16] = system: E. coli GC 6260 (TEM-1 + SHV-5); conditions: Escherichia coli, β-lactamase class A, A (ESBL), MHBII, 35° C. 18 hr, read-out: Minimal Inhibitory Concentration
Method in brief: as §1

[17] = system: K. pn GC 1510 (TEM-10); conditions: Klebsiella pneumoniae, β-lactamase class A (ESBL), MHBII, 35° C. 18 hr, read-out: Minimal Inhibitory Concentration
Method in brief: as §1

[18] = system: E. coli GC 2295 TEM-1 + AmpC; conditions: Escherichia coli, β-lactamase class A, C, MHBII, 35° C. 18 hr, read-out: Minimal Inhibitory Concentration
Method in brief: as §1

[19] = system: E. coli GAR 6649 TEM, OXA, CTX (By PCR only); conditions: Escherichia coli, β-lactamase class A, A (ESBL), D, MHBII, 35° C. 18 hr, read-out: Minimal Inhibitory Concentration
Method in brief: as §1

[20] = system: E. aerogenes GC 7039 TEM-4, Amp C inducable; conditions: Klebsiella aerogenes, β-lactamase class A (ESBL), MHBII, 35° C. 18 hr, read-out: Minimal Inhibitory Concentration
Method in brief: as §1

[21] = system: P. aeruginosa GC 1763 AmpC-inducible; conditions: Pseudomonas aeruginosa, β-lactamase class C, MHBII, 35° C. 18 hr, read-out: Minimal Inhibitory Concentration
Method in brief: as §1

[22] = system: E. coli GC 2920 (IRT-2); conditions: Escherichia coli, β-lactamase class A (IRT), MHBII, 35° C. 18 hr, read-out: Minimal Inhibitory Concentration
Method in brief: as §1

[23] = system: E. coli GC 1995 (TEM-10); conditions: Escherichia coli, β-lactamase class A (ESBL), MHBII, 35° C. 18 hr, read-out: Minimal Inhibitory Concentration
Method in brief: as §1

[24] = system: E. coli GC 2015 (TEM-10 + SHV-1); conditions: Escherichia coli, β-lactamase class A, A (ESBL), MHBII, 35° C. 18 hr, read-out: Minimal Inhibitory Concentration
Method in brief: as §1

## CO/N=C(\C(=O)N[C@@H]1C(=O)N2C(C(=O)[O-])=C(C[N+]3(C)CCCC3)CS[C@H]12)c1csc(N)n1 [Cefepime]
[1]
  MIC: 8 µg/mL (≈ 16.6 µM)
[2]
  MIC: 0.12 µg/mL (≈ 0.25 µM)
[3]
  MIC: 0.5 µg/mL (≈ 1.04 µM)
[4]
  MIC: > 16 µg/mL
[5]
  MIC: 0.25 µg/mL (≈ 0.52 µM)
[6]
  MIC: 4 µg/mL (≈ 8.32 µM)
[7]
  MIC: 0.03 µg/mL (≈ 0.0624 µM)
[8]
  MIC: 0.03 µg/mL (≈ 0.0624 µM)
[9]
  MIC: > 16 µg/mL
[10]
  MIC: 4 µg/mL (≈ 8.32 µM)
[11]
  MIC: > 16 µg/mL
[12]
  MIC: > 16 µg/mL
[13]
  MIC: > 16 µg/mL
[14]
  MIC: 4 µg/mL (≈ 8.32 µM)
[15]
  MIC: > 16 µg/mL
[16]
  MIC: > 16 µg/mL
[17]
  MIC: 0.5 µg/mL (≈ 1.04 µM)
[18]
  MIC: 0.5 µg/mL (≈ 1.04 µM)
[19]
  MIC: > 16 µg/mL
[20]
  MIC: > 16 µg/mL
[21]
  MIC: 2 µg/mL (≈ 4.16 µM)
[22]
  MIC: 0.06 µg/mL (≈ 0.125 µM)
[23]
  MIC: > 16 µg/mL
[24]
  MIC: > 16 µg/mL
